Reference: patent publication US11084818B2 (HEPO PHARMACEUTICAL CO., LTD., priority 2016, dated 2021)

Columns and labels:
[1] = molecular target: T1, hTLR8 (Homo sapiens, UniProt Q9NR97); test: Activation activity test of hTLR8 (HEK-Blue hTLR8 cells, QUANTI-Blue OD650); assay type: cell-based; settings: HEK-Blue hTLR8 cells, 24 hours incubation; read-out: TLR8 (EC50)
T1 construct: host or cells: HEK-Blue hTLR8 (HEK293-derived reporter line)
T1 sequence (Q9NR97 27-1041): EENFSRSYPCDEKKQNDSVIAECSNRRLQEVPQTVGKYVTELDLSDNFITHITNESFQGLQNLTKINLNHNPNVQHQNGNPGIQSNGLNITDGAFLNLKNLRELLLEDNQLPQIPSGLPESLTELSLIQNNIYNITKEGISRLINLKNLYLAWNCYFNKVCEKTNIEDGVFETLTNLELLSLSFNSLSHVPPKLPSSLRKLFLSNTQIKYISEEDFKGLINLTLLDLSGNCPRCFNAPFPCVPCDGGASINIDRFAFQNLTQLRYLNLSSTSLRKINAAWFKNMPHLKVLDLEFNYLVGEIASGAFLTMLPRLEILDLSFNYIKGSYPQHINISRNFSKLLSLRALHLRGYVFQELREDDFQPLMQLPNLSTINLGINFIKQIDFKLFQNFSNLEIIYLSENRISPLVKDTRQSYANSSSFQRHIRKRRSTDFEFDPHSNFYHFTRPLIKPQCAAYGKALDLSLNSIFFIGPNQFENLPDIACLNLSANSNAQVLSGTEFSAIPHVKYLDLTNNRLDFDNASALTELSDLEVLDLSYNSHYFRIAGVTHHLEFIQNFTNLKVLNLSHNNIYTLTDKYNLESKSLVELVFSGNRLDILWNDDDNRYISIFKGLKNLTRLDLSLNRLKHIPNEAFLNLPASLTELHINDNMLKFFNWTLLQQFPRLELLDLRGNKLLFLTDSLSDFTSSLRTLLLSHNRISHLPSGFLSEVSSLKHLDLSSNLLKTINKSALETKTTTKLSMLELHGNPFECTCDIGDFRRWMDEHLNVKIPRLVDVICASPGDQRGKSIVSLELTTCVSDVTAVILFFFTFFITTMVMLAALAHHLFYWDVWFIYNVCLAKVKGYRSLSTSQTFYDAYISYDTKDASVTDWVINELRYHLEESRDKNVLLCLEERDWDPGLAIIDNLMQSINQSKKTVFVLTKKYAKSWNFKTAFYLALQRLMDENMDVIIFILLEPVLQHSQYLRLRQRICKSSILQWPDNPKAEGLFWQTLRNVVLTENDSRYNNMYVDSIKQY
Protocol: (§1) Effect Example 1: Activation Activity Test of hTLR7 and hTLR8
(§2) Cell lines: HEK-Blue™ hTLR7 and HEK-Blue™ hTLR8 (InvivoGen Co.)
(§3) Primary reagents: QUANTI-Blue™ (InvivoGen) and ATPlite 1 Step (PerkinElmer)
(§4) Primary instruments: Automatic Liquid Handling Workstation (Labcyte, Model: Echo), Cell Counter (Countstar, IC1000) and Multifunctional Enzyme Marker (Molecular Device, Flexstation III).
(§5) 2.1 The tested compounds were formulated into a 60 mM concentrated stock solution in DMSO and stored in a nitrogen cabinet.
(§6) 2.3 The T150 cultured cells were taken out from the CO2 incubator and the cell culture supernatant was discarded. The cells were washed with PBS once, followed by addition of about 10 mL of the culture solution. The cells were dissociated by patting the cell culture flask, and gently blown to even by a pipette.
(§7) The cells were counted, and the cell suspension was adjusted to 200,000 cells/mL by the culture solution. Thereafter, 200 μL of diluted cells was added to each well in a 96-well plate containing the compound (40,000 cells/well).
(§8) 2.4 The compounds and cells were incubated in a 5% CO2 incubator at 37° C. for 24 hours.
(§9) 2.5 Compound activity assay: 20 μl of the cell supernatant of each well after induction was added to a cell culture plate containing 180 μL of reagent QUANTI-Blue™, and incubated at 37° C. for 1.5 hours. Thereafter, the optical density absorption (OD650) of each well at 650 nm was measured using a Multifunctional Enzyme Marker: Flexstation III.
(§10) 2.6 Compound Activity: OD650 values were analyzed using GraphPad Prism software and the dose-response curves for the compound were fitted to calculate the EC50 values of the compound.

[2] = molecular target: T2, hTLR7 (Homo sapiens, UniProt Q9NYK1); test: Activation activity test of hTLR7 (HEK-Blue hTLR7 cells, QUANTI-Blue OD650); assay type: cell-based; settings: 24 hours incubation, read-out: TLR7 (EC50)
T2 construct: host or cells: HEK-Blue hTLR7 (HEK293-derived reporter line)
T2 sequence (Q9NYK1 27-1049): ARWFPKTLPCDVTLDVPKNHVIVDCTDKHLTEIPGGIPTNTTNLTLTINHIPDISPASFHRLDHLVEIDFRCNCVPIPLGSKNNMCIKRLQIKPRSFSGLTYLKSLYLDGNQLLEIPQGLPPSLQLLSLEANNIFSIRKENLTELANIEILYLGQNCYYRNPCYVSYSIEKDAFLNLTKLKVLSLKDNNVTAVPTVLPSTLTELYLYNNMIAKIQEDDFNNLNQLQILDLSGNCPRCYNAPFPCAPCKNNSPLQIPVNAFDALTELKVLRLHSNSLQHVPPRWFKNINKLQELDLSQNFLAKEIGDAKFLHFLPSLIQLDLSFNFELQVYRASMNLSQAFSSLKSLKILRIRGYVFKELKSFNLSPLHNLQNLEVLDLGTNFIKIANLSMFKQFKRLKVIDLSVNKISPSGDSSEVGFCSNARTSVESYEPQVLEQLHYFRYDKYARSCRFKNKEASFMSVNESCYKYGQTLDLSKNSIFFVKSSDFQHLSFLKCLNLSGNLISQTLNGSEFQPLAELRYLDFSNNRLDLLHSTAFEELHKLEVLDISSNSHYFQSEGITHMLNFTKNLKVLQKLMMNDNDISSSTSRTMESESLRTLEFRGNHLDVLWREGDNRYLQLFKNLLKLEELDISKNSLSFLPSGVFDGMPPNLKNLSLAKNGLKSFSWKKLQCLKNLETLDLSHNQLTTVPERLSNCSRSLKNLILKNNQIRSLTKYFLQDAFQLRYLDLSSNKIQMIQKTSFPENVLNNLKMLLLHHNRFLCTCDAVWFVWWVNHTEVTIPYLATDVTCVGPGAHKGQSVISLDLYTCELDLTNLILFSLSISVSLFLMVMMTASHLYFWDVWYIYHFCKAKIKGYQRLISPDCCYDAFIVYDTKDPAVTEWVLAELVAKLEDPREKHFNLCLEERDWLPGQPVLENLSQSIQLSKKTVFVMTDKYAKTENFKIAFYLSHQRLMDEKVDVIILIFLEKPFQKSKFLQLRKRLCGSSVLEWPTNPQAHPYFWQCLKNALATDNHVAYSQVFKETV
Protocol: as §1, §2, §3, §4, §5, §6, §7, §8, §9, §10

In the case of `COCCOc1ncc2[nH]c(=O)n(Cc3ccc(CN4CC5CC(C5)C4)cc3)c2n1` [Example 52, 9-(4-((3-azabicyclo[3.1.1]heptan-3-yl)methyl)benzyl)-2-(2-methoxyethoxy)-7,9-dihydro-8H-purin-8-one], the EC50 [1] is reported as greater than 100 µM and the EC50 [2] is reported as 1 to 10 µM.
With `COCCOc1ncc2[nH]c(=O)n(Cc3ccc(CN4CC[C@@H](O)C4)cc3)c2n1` [Example 6, (R)-9-(4-((3-hydroxypyrrolidin-1-yl)methyl)benzyl)-2-(2-methoxyethoxy)-7,9-dihydro-8H-purin-8-one] the EC50 [1] was greater than 100 µM and the EC50 [2] was 10 to 100 µM.
`COCCOc1ncc2nc(N)n(Cc3ccc(CN4CCCC4)cc3)c2n1` [Example 61, 2-(2-methoxyethoxy)-9-(4-(pyrrolidin-1-ylmethyl)benzyl)-7,9-dihydro-8H-purin-8-amine] gave an EC50 [1] greater than 100 µM and an EC50 [2] of 10 to 100 µM.
With `COCCOc1cc2c(cn1)[nH]c(=O)n2Cc1ccc(CN2CCCC2)cc1` [Example 39, 6-(2-methoxyethoxy)-1-(4-(pyrrolidin-1-ylmethyl)benzyl)-1,3-dihydro-2H-imidazole-[4,5-c]pyridin-2-one] the EC50 [1] was greater than 100 µM and the EC50 [2] was 10 to 100 µM.
With `COCCOc1ccc2[nH]c(=O)n(Cc3ccc(CN4CCCC4)cc3)c2n1` [Example 40, 5-(2-methoxyethoxy)-3-(4-(pyrrolidin-1-ylmethyl)benzyl)-1,3-dihydro-2H-imidazole[4,5-b]pyridin-2-one] the EC50 [1] was greater than 100 µM and the EC50 [2] was greater than 100 µM.
For `COCCOc1ncc2[nH]c(=O)n(Cc3cccc(CN4CCCCC4)c3)c2n1` [Example 20, 2-(2-methoxyethoxy)-9-(3-(piperidin-1-ylmethyl)benzyl)-7,9-dihydro-8H-purin-8-one], the EC50 [1] was greater than 100 µM and the EC50 [2] was 10 to 100 µM.
Work on `COCCOc1ncc2[nH]c(=O)n(Cc3ccc(C(C)N4CCCC4)cc3)c2n1` (stereo not shown) [Example 14, 2-(2-methoxyethoxy)-9-(4-(1-(pyrrolidin-1-yl)ethyl)benzyl)-7,9-dihydro-8H-purin-8-one] yielded an EC50 [1] greater than 100 µM and an EC50 [2] of 0.001 to 1 µM.
Molecule `O=c1[nH]c2cnc(OCCOCC(F)(F)F)nc2n1Cc1ccc(CN2CCCC2)cc1` [Example 48, 9-(4-(pyrrolidin-1-ylmethyl)benzyl)-2-(2-(2,2,2-trifluoroethoxy)ethoxy)-7,9-dihydro-8H-purin-8-one] has an EC50 [1] greater than 100 µM and an EC50 [2] of 0.001 to 1 µM.
With `COCCOc1ncc2[nH]c(=O)n(Cc3ccc([C@H](C)N4CCCC4)cc3)c2n1` [Example 41, (S)-2-(2-methoxyethoxy)-9-(4-(1-(pyrrolidin-1-yl)ethyl)benzyl)-7,9-dihydro-8H-purin-8-one] the EC50 [1] was greater than 100 µM and the EC50 [2] was 0.001 to 1 µM.
Work on `CCCn1c(=O)n(Cc2ccc(CN3CCCC3)cc2)c2nc(OCCOC)ncc21` [Example 57, 9-(4-(pyrrolidin-1-ylmethyl)benzyl)-7-propyl-2-(2-methoxyethoxy)-7,9-dihydro-8H-purin-8-one] yielded an EC50 [1] greater than 100 µM and an EC50 [2] greater than 100 µM.
For `COCCOCCOc1ncc2[nH]c(=O)n(Cc3cccc(CN4CCCC4)c3)c2n1` [Example 30, 2-(2-(2-methoxyethoxy)ethoxy)-9-(3-(pyrrolidin-1-ylmethyl)benzyl)-7,9-dihydro-8H-purin-8-one], the EC50 [1] was greater than 100 µM and the EC50 [2] was greater than 100 µM.
In the case of `O=c1[nH]c2cnc(OCCC3CC3)nc2n1Cc1cccc(CN2CCCC2)c1` [Example 29, 2-(2-cyclopropylethoxy)-9-(3-(pyrrolidin-1-ylmethyl)benzyl)-7,9-dihydro-8H-purin-8-one], the EC50 [1] is reported as greater than 100 µM and the EC50 [2] is reported as greater than 100 µM.
Molecule `COCCOc1ncc2[nH]c(=O)n(Cc3ccc(C(C)N4CCCCCC4)cc3)c2n1` (stereo not shown) [Example 16, 2-(2-methoxyethoxy)-9-(4-(1-(azacycloheptane-1-yl)ethyl)benzyl)-7,9-dihydro-8H-purin-8-one] has an EC50 [1] greater than 100 µM and an EC50 [2] of 0.001 to 1 µM.
Molecule `COCCOc1ncc2[nH]c(=O)n(Cc3ccc(CN4CC[C@@H](F)C4)cc3)c2n1` [Example 5, (R)-9-(4-((3-fluoropyrrolidin-1-yl)methyl)benzyl)-2-(2-methoxyethoxy)-7,9-dihydro-8H-purin-8-one] has an EC50 [1] greater than 100 µM and an EC50 [2] of 1 to 10 µM.
`COCCOc1ncc2[nH]c(=O)n(Cc3ccc(CCN4CCCC4)cc3)c2n1` [Example 68, 9-(4-(2-(pyrrolidin-1-yl)ethyl)benzyl)-2-(2-methoxyethoxy)-7,9-dihydro-8H-purin-8-one] gave an EC50 [1] greater than 100 µM and an EC50 [2] of 1 to 10 µM.
`COCCOc1ncc2[nH]c(=O)n(Cc3ccc(CN4CCC(F)(F)C4)cc3)c2n1` [Example 54, 9-(4-((3,3-difluoropyrrolidin-1-yl)methyl)benzyl)-2-(2-methoxyethoxy)-7,9-dihydro-8H-purin-8-one] gave an EC50 [1] greater than 100 µM and an EC50 [2] of 10 to 100 µM.
Work on `COCCOc1ncc2[nH]c(=O)n(Cc3ccc([C@@H](C)N4CCCC4)cc3)c2n1` [Example 42, (R)-2-(2-methoxyethoxy)-9-(4-(1-(pyrrolidin-1-yl)ethyl)benzyl)-7,9-dihydro-8H-purin-8-one] yielded an EC50 [1] greater than 100 µM and an EC50 [2] of 0.001 to 1 µM.
In the case of `COCCOc1ncc2[nH]c(=O)n(CCc3ccc(CN4CCCC4)cc3)c2n1` [Example 67, 9-(4-(pyrrolidin-1-ylmethyl)phenethyl)-2-(2-methoxyethoxy)-7,9-dihydro-8H-purin-8-one], the EC50 [1] is reported as greater than 100 µM and the EC50 [2] is reported as greater than 100 µM.
Work on `COCCOc1ncc2[nH]c(=O)n(Cc3ccc(CN4CCC5(CC4)COC5)cc3)c2n1` [Example 11, 9-(4-((2-oxa-7-azaspiro[3.5]nonan-7-yl)methyl)benzyl)-2-(2-methoxyethoxy)-7,9-dihydro-8H-purin-8-one] yielded an EC50 [1] greater than 100 µM and an EC50 [2] of 1 to 10 µM.
Work on `COCCOc1ncc2[nH]c(=O)n(Cc3cccc(CN4CCC[C@@H]4C(=O)OC)c3)c2n1` [Example 23, methyl (3-((2-(2-methoxyethoxy)-8-oxo-7,8-dihydro-9H-purin-9-yl)methyl)benzyl)-D-pyrrolidine-2-carboxylate] yielded an EC50 [1] greater than 100 µM and an EC50 [2] of 10 to 100 µM.
